Measurements: patent US7550469B2, “Heterocyclic amide derivatives and their use as dopamine D3 receptor ligands” (Aventis Pharmaceuticals Inc., priority 2001, dated 2009)

Tests used:
[1] = tested on: Alpha-1 adrenergic receptors from rat brain cortex; assay: [3H]Prazosin binding to alpha-1 adrenergic receptors from rat brain cortex (Protocol 4); conditions: for r-α1 % Inh: r = rat, Inh @ 1 μM
Text: [^3H]Prazosin Binding to Alpha-1 Adrenergic Receptors from Rat Brain Cortex
Objective: This in vitro assay is designed as a screen to identify compounds displaying a affinity for the a, adrenoceptor subtype in membranes from rat cortex. It measures the ability of the test compounds to displace [^3H]prazosin from the α1 sites.
Membrane Preparation: Rat brain tissue can be obtained from either fresh (male Wistar rats; 200-250 g) or frozen (male Sprague-Dawley 200-250 g from Harlan; cat. #BT-403) stocks. The cortex is dissected, homogenized in 50 vol (wet weight) ice-cold 50 mM Tris buffer (pH 7.7 at 25° C.). The homogenate is centrifuged at 48,000 g for 10 min, the pellet is resuspended in 50 mM Tris buffer and centrifuged a second time. The second pellet (P2) is resuspended to yield a concentration of 115 mg wet weight per 10 ml. […] Membranes should be mixed just before addition to ensure an even suspension. […] This is diluted to a 0.5 mM stock in dH2O. Serial dilutions in Buffer A are made from which 50 μl additions to the plate are made in duplicate in order to achieve the final concentrations desired. Typically, one 96 well plate is used to evaluate 11 compounds at 4 concentrations (10^−6-10^−9 M) in duplicate. Total binding and nonspecific binding are determined in quadruplicate. Usually one standard is run with each assay. • [^3H]Prazosin is made up in Buffer A such that when 50 μl are added per well the final concentration is […] in a final assay volume of 200 μl. The final concentration should be verified by running a sample in a scintillation counter prior to adding the [^3H]prazosin to the 96 well plate. Note: The radioactivity should be prepared just before the additions are made so that it is not allowed to sit on the bench for very long. • Packard GF/B Plate Pretreatment: The filter plates are presoaked for at least 30 min in ice cold Buffer B containing 0.05% polyethyleneimine (200 μl/200 ml) to maximize filtration efficiency and minimize filter blank binding. • Incubation & Filtration: Once buffer, compounds, [^3H]prazosin and membrane have been added (and mixed), the 96 well plates are incubated for 40 min at 37° C. and spaced 3-5 min apart. At 40 min, the plates are filtered using a Tomtec Automated Cell Harvester. Filtration is immediately followed by washes of ice cold Buffer B (total vol. ˜7 ml). • Drying and Counting: Each filter plate is dried under a heat lamp for 15 min. The back of the plate is sealed and 40 μl of Packard microscint fluid are added per well. Using Packard film, each plate is heat sealed prior to being counted in a Packard Topcount Scintillation counter. A program has been written that counts each plate twice sending DPM, CPM and TSIS data to disk and printer. • Analysis of Results: Raw DPM and CPM data are captured on disk and are imported into one of several software packages (Graphpad Prism Ver 2.0, Excel) residing on the LAN. Specific binding is defined as the difference between total binding and the binding in the presence of 10 μM phentolamine. Total binding is less than 10% of the total added ligand. Software using one-site competition curve analysis is employed in the calculation of IC50 and KI (Cheng-Prusoff equation, 1973). The top and bottom of the non-linear regression are held constant at 0% and 100% inhibition. The percent inhibition at each drug concentration is the mean of duplicate determinations.

[2] = target: T1, human dopamine D3 receptor (Homo sapiens, UniProt P35462); assay: Microphysiometer test of functional activity in CHO cells expressing human dopamine D3 receptor (quinpirole-induced acidification rate); format: cell-based; conditions: test compound 10 nM, 100 nM, 1 uM; quinpirole 10 nM
T1 construct: expressed in transfected cells; host or cells: CHO cells
Procedure: The functional activity of compounds of the invention (i.e. whether they are antagonists, agonists or partial agonists) can readily be determined using the microphysiometer test method that follows:
Chinese Hamster Ovary (CHO) cells, expressing the human dopamine D3 receptor, were grown on the surface of a capsule cup. Cups are assembled and placed on the microphysiometer, and buffer (Dulbecco's Modified Eagle's Medium without sodium bicarbonate and without serum) is perfused through the cup assembly until a stable baseline is achieved (4 hours). Buffer perfusion rate and solution changes are controlled by a computer. Intracellular acidification rate is measured in each of the 8 cup assemblies and recorded by the computer. Buffer containing test compound (10 nM, 100 nM, and 1 uM) is perfused through the cup assembly for 20 min. Buffer containing quinpirole (10 nM) (a D3 agonist) and test compound (same concentrations) is perfused for an additional 1 min. This is followed by a recovery period of 10-60 min where buffer alone was perfused through the cups. Quinpirole increases the rate of acidification. If the test compound is a D3 antagonist, this increase will be inhibited in a concentration dependent manner.

T1 sequence (P35462 whole entry): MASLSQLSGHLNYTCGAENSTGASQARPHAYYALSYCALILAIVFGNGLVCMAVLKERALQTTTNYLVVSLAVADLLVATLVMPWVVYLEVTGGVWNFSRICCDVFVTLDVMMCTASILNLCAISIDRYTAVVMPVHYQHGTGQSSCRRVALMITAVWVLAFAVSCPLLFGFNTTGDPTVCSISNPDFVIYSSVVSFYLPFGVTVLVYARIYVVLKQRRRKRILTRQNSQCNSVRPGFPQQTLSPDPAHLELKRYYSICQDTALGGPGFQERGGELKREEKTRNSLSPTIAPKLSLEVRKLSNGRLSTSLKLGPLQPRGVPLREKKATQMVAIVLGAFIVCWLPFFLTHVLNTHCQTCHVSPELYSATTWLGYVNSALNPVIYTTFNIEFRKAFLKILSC

SMILES	r-α1 % Inh [1] [%]	further results
CC(C)(C)c1ccc(C(=O)NCCCCN2CCCN(c3csc4cc(F)ccc34)CC2)cc1 [compound 822198]	0	
CCOc1ccc(C(=O)NCCCCN2CCN(c3csc4cc(C(F)(F)F)ccc34)CC2)cc1 [compound 815541]		functional activity at D3 (inhibition of quinpirole-induced increase of acidification rate) [2]: D3 antagonists
O=C(NCCCCN1CCN(c2csc3cc(C(F)(F)F)ccc23)CC1)c1cc2ccccc2s1 [814238A]		rat alpha 1 % I ([1]; @ 10 uM): 50% @ 10 uM
O=C(NCCCCN1CCCN(c2csc3cc(F)ccc23)CC1)c1cccc(F)c1 [compound 822154]	0	
O=C(NCCCCN1CCCN(c2csc3cc(F)ccc23)CC1)c1ccc(OC(F)(F)F)cc1 [compound 822152]	14	
COc1ccccc1C(=O)NCCCCN1CCCN(c2csc3cc(F)ccc23)CC1 [compound 822157]	41	
